The structures appear in SMILES notation.

For this experiment, the target named is GSPT1 (Homo sapiens (Human), UniProt P15170+Q96SW2). As to the kind of experiment: immunofluorescence assay for GSPT1 degradation in CAL-51 cells (Example 10). To be noted: CAL-51 cells, 6 h; read-out: IF Class (GSPT1 degradation DC50). It counts as cell-based. The procedure: The representative compounds were tested in an immunofluorescence assay for their activity to degrade GSPT1. […] Compounds were stored at 10 mM DMSO stocks. […] Cells were subsequently rinsed with PBS and fixed in 10% Formalin solution (50 μl, Sigma HT5011)) for 20 mins at room temperature. […] Following three further PBS washes, 50 μL blocking buffer (1% BSA, Sigma A4503, in PBS) was added for 45 min for signal-to noise reduction. Primary antibody (human GSPT1, Sigma HPA052488) was diluted in blocking buffer (dil.1/300, 35 μL/well) and incubated with the cells overnight at 4° C. […] After three final PBS washes, samples were conserved in 100 μL PBS in the dark, until measurement. Image acquisition was performed on the Operetta High-Content Imager (Perkin-Elmer). […] For the determination of GSPT1 DC50 values, a custom algorithm implemented in the PerkinElmer image analysis software Harmony-Acapella® was developed. After user-defined setting of adjustment parameters, the analysis was run identically without human intervention for all image fields. DAPI staining of the nuclei was used to determine the location of cells using standard nuclei detection modules. Segmentation artifacts were removed by threshold-based filters for area, roundness and intensity. The outline of the cells was determined analogously from the sum of the normalized, smoothed DAPI and Actin channel, starting from each nucleus. […] GSPT1 degradation (DC50) was calculated after normalization to controls and data import in CDD vault Database, using non-linear regression.
Sequence of GSPT1 (P15170 whole entry): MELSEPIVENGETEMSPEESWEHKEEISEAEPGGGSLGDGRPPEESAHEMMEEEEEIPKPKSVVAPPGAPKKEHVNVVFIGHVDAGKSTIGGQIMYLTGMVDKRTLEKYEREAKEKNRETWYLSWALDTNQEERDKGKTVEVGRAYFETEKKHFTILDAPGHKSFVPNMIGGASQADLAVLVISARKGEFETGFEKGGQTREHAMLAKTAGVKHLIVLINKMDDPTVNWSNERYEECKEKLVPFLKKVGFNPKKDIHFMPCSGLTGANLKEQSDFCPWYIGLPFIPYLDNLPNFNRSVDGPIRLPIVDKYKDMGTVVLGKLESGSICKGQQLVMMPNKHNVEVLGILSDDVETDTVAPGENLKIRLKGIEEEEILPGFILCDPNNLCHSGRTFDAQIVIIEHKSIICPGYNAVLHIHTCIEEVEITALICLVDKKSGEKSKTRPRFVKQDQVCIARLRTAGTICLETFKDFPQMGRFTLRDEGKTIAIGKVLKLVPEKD
Sequence of GSPT1 (Q96SW2 whole entry): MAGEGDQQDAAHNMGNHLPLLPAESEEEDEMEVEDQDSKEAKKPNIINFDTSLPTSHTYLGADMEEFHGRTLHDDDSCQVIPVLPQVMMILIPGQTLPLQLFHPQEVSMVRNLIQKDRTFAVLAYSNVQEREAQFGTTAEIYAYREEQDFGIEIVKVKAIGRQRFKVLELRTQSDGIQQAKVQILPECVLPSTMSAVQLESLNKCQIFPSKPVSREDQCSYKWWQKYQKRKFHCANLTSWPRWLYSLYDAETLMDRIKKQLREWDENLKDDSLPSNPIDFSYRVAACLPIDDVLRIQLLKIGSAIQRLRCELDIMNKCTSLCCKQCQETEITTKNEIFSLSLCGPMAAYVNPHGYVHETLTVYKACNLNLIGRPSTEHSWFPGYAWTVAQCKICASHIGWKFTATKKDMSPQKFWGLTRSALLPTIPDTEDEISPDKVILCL
Sequence of GSPT1 (Q16531 2-1140 partner): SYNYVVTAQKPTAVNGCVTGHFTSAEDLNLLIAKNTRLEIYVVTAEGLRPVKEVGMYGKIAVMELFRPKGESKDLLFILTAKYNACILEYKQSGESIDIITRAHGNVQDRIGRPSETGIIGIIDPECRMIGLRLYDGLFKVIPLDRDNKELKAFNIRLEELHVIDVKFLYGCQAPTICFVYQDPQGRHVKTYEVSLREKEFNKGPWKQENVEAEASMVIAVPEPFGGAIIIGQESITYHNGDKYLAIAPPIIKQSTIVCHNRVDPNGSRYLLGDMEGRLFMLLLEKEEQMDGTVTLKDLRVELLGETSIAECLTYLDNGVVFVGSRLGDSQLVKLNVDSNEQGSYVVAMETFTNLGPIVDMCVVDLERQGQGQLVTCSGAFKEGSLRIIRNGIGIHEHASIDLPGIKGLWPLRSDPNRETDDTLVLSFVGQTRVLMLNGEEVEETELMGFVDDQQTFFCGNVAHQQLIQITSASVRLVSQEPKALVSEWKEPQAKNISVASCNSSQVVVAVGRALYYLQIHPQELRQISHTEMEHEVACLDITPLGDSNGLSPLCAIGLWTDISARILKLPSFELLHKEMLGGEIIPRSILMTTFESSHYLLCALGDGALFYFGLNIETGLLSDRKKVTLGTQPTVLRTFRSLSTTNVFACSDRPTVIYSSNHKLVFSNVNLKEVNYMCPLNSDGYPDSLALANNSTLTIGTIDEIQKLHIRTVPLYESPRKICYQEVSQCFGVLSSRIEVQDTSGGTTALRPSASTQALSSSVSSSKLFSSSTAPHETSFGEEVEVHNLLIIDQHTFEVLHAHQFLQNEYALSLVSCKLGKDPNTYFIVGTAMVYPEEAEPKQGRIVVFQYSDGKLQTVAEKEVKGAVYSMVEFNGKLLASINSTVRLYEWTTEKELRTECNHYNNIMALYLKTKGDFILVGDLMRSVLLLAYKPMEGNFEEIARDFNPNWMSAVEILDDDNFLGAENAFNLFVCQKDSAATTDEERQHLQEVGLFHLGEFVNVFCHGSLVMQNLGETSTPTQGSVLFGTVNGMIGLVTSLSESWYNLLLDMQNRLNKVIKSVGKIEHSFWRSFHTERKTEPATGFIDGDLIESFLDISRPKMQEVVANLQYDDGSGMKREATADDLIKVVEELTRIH
In the case of `Cc1ccc(NC(=O)OCc2ccc3c(c2)C(=O)N(C2CCC(=O)NC2=O)C3)c(F)c1Cl` (centres unmarked) [Compound 179, (2-(2,6-dioxopiperidin-3-yl)-3-oxoisoindolin-5-yl) methyl (3-chloro-2-fluoro-4-methylphenyl)carbamate], the DC50 is below 30 nM. The value for `O=C1CCC(N2Cc3ccc(COC(=O)Nc4ccc(F)c(OC(F)F)c4F)cc3C2=O)C(=O)N1` (centres unmarked) [Compound 191, (2-(2,6-dioxopiperidin-3-yl)-3-oxoisoindolin-5-yl)methyl (3-(difluoromethoxy)-2,4-difluorophenyl) carbamate] was 30 to 300 nM; that for `CCCOc1cc(NC(=O)OCc2ccc3c(c2)C(=O)N(C2CCC(=O)NC2=O)C3)c(F)cc1C` (centres unmarked) [Compound 231, (2-(2,6-dioxopiperidin-3-yl)-3-oxoisoindolin-5-yl)methyl (2-fluoro-4-methyl-5-propoxyphenyl)carbamate] was below 30 nM.

Regarding `CC(C)Oc1ccc(F)c(NC(=O)OCc2ccc3c(c2)C(=O)N(C2CCC(=O)NC2=O)C3)c1` (centres unmarked) [Compound 221, (2-(2,6-dioxopiperidin-3-yl)-3-oxoisoindolin-5-yl)methyl (2-fluoro-5-isopropoxyphenyl)carbamate], the DC50 was in the range of 30 to 300 nM. The value for `O=C1CCC(N2Cc3ccc(COC(=O)Nc4cc(OC(F)F)c(F)cn4)cc3C2=O)C(=O)N1` (centres unmarked) [Compound 227, (2-(2,6-dioxopiperidin-3-yl)-3-oxoisoindolin-5-yl)methyl (4-(difluoromethoxy)-5-fluoropyridin-2-yl)carbamate] was above 300 nM; that for `CC1(c2ccc(NC(=O)OCc3ccc4c(c3)C(=O)N(C3CCC(=O)NC3=O)C4)cc2F)COC1` (centres unmarked) [Compound 240, (2-(2,6-dioxopiperidin-3-yl)-3-oxoisoindolin-5-yl)methyl (3-fluoro-4-(3-methyloxetan-3-yl)phenyl)carbamate] was 30 to 300 nM. As for `O=C1CCC(N2Cc3ccc(COC(=O)NC45CC(F)(C4)C5)cc3C2=O)C(=O)N1` (centres unmarked) [Compound 190], the figure is above 300 nM; as for `CCOc1cc(NC(=O)OCc2ccc3c(c2)C(=O)N(C2CCC(=O)NC2=O)C3)c(F)cc1C` (centres unmarked) [Compound 228], below 30 nM.

Consider `CC(C)(C)c1cccc(NC(=O)OCc2ccc3c(c2)C(=O)N(C2CCC(=O)NC2=O)C3)n1` (centres unmarked) [Compound 170, (2-(2,6-dioxopiperidin-3-yl)-3-oxoisoindolin-5-yl)methyl (6-(tert-butyl)pyridin-2-yl)carbamate], for which the DC50 was in the range of 30 to 300 nM. The value for `CC(C)(O)c1ccc(NC(=O)OCc2ccc3c(c2)C(=O)N(C2CCC(=O)NC2=O)C3)cc1` (centres unmarked) [Compound 195, (2-(2,6-dioxopiperidin-3-yl)-3-oxoisoindolin-5-yl)methyl (4-(2-hydroxypropan-2-yl)phenyl)carbamate] was above 300 nM. The value for `O=C1CCC(N2Cc3ccc(COC(=O)Nc4cc(OC(F)(F)F)c(F)cc4F)cc3C2=O)C(=O)N1` (centres unmarked) [Compound 200, (2-(2,6-dioxopiperidin-3-yl)-3-oxoisoindolin-5-yl)methyl (2,4-difluoro-5-(trifluoromethoxy)phenyl)carbamate] was 30 to 300 nM. With `O=C1CCC(N2Cc3ccc(COC(=O)Nc4cc(Cl)cc5c4OCC5)cc3C2=O)C(=O)N1` (centres unmarked) [Compound 189], the DC50 was in the range of 30 to 300 nM. Turning to `Cc1cc(F)c(NC(=O)OCc2ccc3c(c2)C(=O)N(C2CCC(=O)NC2=O)C3)cc1C` (centres unmarked) [Compound 208, (2-(2,6-dioxopiperidin-3-yl)-3-oxoisoindolin-5-yl)methyl (2-fluoro-4,5-dimethylphenyl)carbamate], the DC50 is above 300 nM.

`CC1(c2ccc(NC(=O)OCc3ccc4c(c3)C(=O)N(C3CCC(=O)NC3=O)C4)cc2Cl)COC1` (centres unmarked) [Compound 236, (2-(2,6-dioxopiperidin-3-yl)-3-oxoisoindolin-5-yl)methyl (3-chloro-4-(3-methyloxetan-3-yl)phenyl)carbamate]: the DC50 is below 30 nM.
